Columns and labels:
[1] = target: T1, Arginase-1 (Homo sapiens, UniProt P05089); experiment: Inhibition of Arginase
T1 sequence (P05089 whole entry): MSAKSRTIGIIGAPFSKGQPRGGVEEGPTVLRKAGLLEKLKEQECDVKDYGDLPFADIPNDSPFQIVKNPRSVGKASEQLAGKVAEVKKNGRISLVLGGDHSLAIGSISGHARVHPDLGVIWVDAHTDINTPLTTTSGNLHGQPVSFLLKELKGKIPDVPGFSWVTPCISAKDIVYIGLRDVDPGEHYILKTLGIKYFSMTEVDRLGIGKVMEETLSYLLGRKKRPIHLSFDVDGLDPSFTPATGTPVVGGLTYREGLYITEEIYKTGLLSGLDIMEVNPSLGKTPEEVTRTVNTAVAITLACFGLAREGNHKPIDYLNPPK
Procedure: (§1) Inhibition of arginase I (ARG I) and arginase II (ARGG II) novel compounds is followed spectrophotometrically at 530 nm. The compound to be tested is dissolved in H2O and prepared 100 mM stock solution. 10 μl of the stock solution is diluted in 90 μl of the assay buffer that comprises 0.1M sodium phosphate buffer containing 130 mM NaCl, pH 7.4, to which is added ovalbumin (OVA) at a concentration of 1 mg/mi. Solutions of arginase I and II are prepared in 100 mM sodium phosphate buffer, pH 7.4 containing 1 mg/ml OVA to give an arginase stock solution at a final concentration of 100 ng/ml. To each well of a 96-well microtiter plate is add 40 μl of enzyme, 10 μl of an inventive compound and 10 μl of enzyme substrate (L-arginine+manganese sulfate). For wells that are used as positive controls, only the enzyme and its substrate are added, while wells used as negative controls contain only manganese sulfate. After incubating the microtiter plate at 37° C. for 60 minutes, 150 μl of a urea reagent obtained by combining equal proportions (1:1) of reagents A and B is added to each well of the microtiter plate to stop the reaction. The urea reagent is made just before use by combining Reagent A (10 mM o-phthaldialdehyde, and 0.4% polyoxyethylene (23) lauryl ether (w/v) in 1.8 M sulfuric acid) with Reagent B (1.3 mM […], 0.4% polyoxyethylene (23) lauryl ether (w/v), 130 mM boric acid in 3.6 M sulfuric acid). After quenching the reaction mixture, the microtiter plate is allowed to stand for an additional 10 minutes at room temperature to allow color development. T

[2] = target: T2, Arginase-2, mitochondrial (Homo sapiens, UniProt P78540); experiment: Inhibition of Arginase
T2 sequence (P78540 whole entry): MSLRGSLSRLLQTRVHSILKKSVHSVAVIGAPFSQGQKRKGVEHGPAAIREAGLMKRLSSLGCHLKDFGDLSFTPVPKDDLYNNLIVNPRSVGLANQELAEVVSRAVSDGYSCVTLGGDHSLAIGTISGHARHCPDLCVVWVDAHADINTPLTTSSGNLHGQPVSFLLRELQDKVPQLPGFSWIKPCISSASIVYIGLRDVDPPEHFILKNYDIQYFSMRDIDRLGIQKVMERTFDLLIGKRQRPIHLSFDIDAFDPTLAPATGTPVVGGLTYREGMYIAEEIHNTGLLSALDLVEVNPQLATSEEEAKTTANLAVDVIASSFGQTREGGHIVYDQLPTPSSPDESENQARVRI
Procedure: as §1

| IC50 [1] | IC50 [2] | SMILES |
| --- | --- | --- |
| 14 nM | – | CCCCNC(=O)Cn1nnnc1C(N)CCCCB(O)O (stereo not given) [US11845767, Example 271] |
| 340 nM | – | NC(CCCCB(O)O)c1nnnn1CC(=O)N1CCOCC1 (stereo not given) [US11845767, Example 274] |
| < 101 nM | – | NC(CCCCB(O)O)c1nnnn1CCc1ccc(Br)cc1 (stereo not given) [US11845767, Example 313] |
| 15.5 nM | 18.6 nM | NC(CCCCB(O)O)c1nnnn1CC(=O)NCc1ccc(Cl)cc1F (stereo not given) [US11845767, Example 318] |
